Measured values reported in patent US20230330059A1, “3-PHENYL-2H-CHROMENE DERIVATIVE AND PHARMACEUTICAL COMPOSITION FOR PREVENTING OR TREATING ALZHEIMER'S, CONTAINING SAME” (NEUROBIONET, INC., priority 2020, published 2023).

Key:
Aβ42 [1] = biological target: T1, Aβ42 (Homo sapiens, UniProt P05067); assay: Thioflavin T (ThT) assay of Aβ fibrosis; assay type: biochemical; details: ThT fluorescence, 37° C., 180 minutes; compared to negative control and Daidzein or Equol; FIG. 1
T1 construct: 1,1,1,3,3,3-hexafluoro-2-propanol-treated Aβ42 (# A-1163-1, rPeptide); purchased rPeptide A-1163-1
Method: ThT assay was used to examine whether the drugs have an inhibitory activity against the fibrosis of Aβ. Lyophilized AggreSure AβAS-72216, AnaSpec) was dissolved in cold Tris buffered saline (TBS; pH 7.2) to prepare a 160 µg/mL Aβ solution. The solution was aliquoted into 1.5 mL tubes and stored at -80° C. until use. ThT (# T3516, Sigma-Aldrich) and drug candidates were dissolved in TBS to form a final concentration of 500 µM. The diluted aggregates were added to […] black plates (Nunc # 242764), mixed with ThT and drug candidates, and incubated at 37° C. for 180 minutes. Fluorescence signals were measured every 5 minutes using a plate reader (Victor3, PerkinElmer).

Aβ42 [2] = biological target: T1, Aβ42; assay: Multimer detection system (MDS) assay of Aβ42 oligomerization; assay type: biochemical; details: compounds 100 µM, Aβ42 200 µg/mL; compared to negative control and Daidzein or Equol; FIG. 2
Method: The drugs selected on the basis of the ThT assay results were evaluated for inhibitory activity against the oligomerization of Aβ42, using a multimer detection system (MDS) assay. Immediately after being dissolved in 1% NH4OH (# 221228, Sigma-Aldrich), 1,1,1,3,3,3-hexafluoro-2-propanol-treated Aβ42 (# A-1163-1, rPeptide) was diluted in 500 µL of phosphate-buffered saline (PBS; pH 7.5), aliquoted into 1.5-mL tubes, and stored at -80° C. until use. Aβ42 and the compounds were mixed with PBS to make final concentrations of 200 µg/mL and 100 µM, respectively, and incubated at room temperature. Aggregation of Aβ42 was terminated by maintaining at -80° C.
After the reaction between each drug and Aβ42, the oligomeric form of Aβ42 was measured for each time to measure inhibitory effects on the oligomer.

IL-6 = IL-6 production (ELISA) in LPS-treated BV2 cells; assay type: cell-based, mouse; details: 5 µM, LPS (100 ng/ml) 24 hours, FIG. 10a
Method: BV2 cells were seeded at a density of 4x10^5 cells/well into 96-well plates and stabilized for 24 hours. Thereafter, the cells were treated with 5 µM of daidzein, o-desmethylangolensin, S-equal, SPA1413, or SPA1426 for 30 minutes and then with LPS (100 ng/ml) for 24 hours at 37° C. The culture medium was collected and quantitatively measured for IL-6 and TNF-a released to the BV2 culture supernatant, using the enzyme immunoassay method […] Enzyme-Linked Immuno Assay (ELISA) kit (R&D systems, Minneapolis, MN, USA). The IL-6 and TNF-a releases from the groups treated with the samples were evaluated relative to that from the LPS-treated group, which was set to be 100%, and the results are depicted in FIGS. 10a and 10b.

COX-2 = COX-2 protein expression (western blot) in LPS-treated BV2 cells; assay type: cell-based, mouse; details: 5 µM, LPS (100 ng/ml) 24 hours, FIG. 11a
Method: (§1) BV2 cells were aliquoted at a density of 1x10^6 cells/well into 60 mm dishes and stabilized for 24 hours. Thereafter, the cells were treated with 5 µM of S-equal, SPA1413, or SPA1426 for 30 minutes and then with LPS (100 ng/ml) for 24 hours at 37° C. After being cultured to reach 100% confluence, the cells were washed with PBS and lysed with a lysis buffer (PRO-PREP™ Protein Extraction Solution, Intron Biotechnology, Seongnam, Korea). With bovine serum albumin (BSA) serving as a standard, the protein contents of the lysate supernatants were measured by Bio-Rad Protein Assay (Bio-Rad, California, USA) to determine the total protein content in each sample. Afterwards, each of the samples was loaded in a protein amount of 30 µg on a 10-12% SDS-PAGE gel and run for electrophoresis. The electrophorized proteins were transferred to a PVDF membrane which was then blocked with 5% skim milk and incubated with antibodies to COX-2 or iNOS (Cell Signaling Technologies, Massachusetts, USA). Detection was conducted with a ChemiDoc XRS+ imaging system (Bio-Rad, CA, USA).

JNK = JNK protein expression (western blot) in LPS-treated BV2 cells; assay type: cell-based, mouse; details: 5 µM, compared to the LPS-treated group, FIG. 12a
Method: as §1, with “JNK” for “COX-2”, “p38” for “iNOS”

p38 = p38 protein expression (western blot) in LPS-treated BV2 cells; assay type: cell-based, mouse; details: 5 µM, compared to the LPS-treated group, FIG. 12b
Method: as §1, with “JNK” for “COX-2”, “p38” for “iNOS”

NGF release in C6 cells = assay: Nerve growth factor (NGF) release in C6 cells (ELISA); assay type: cell-based, rat; details: 5 µM, 24 hours, compared to the normal group, FIG. 13
Method: C6 cells were seeded at a density of 4x10^5 cells/well into 96-well plates and stabilized for 24 hours. Thereafter, the cells were treated with 5 µM of daidzein, o-desmethylangolensin, S-equal, SPA1413, or SPA1426 for 24 hours. The culture medium was collected and quantitatively measured for NGF released to the C6 culture supernatant using the enzyme immunoassay method Competitive Enzyme-Linked Immuno Assay (ELISA) kit (R&D systems, Minneapolis, MN, USA). The NGF releases from the groups treated with the samples were evaluated relative to that from the normal group, which was set to be 100%, and the results are depicted in FIG. 13.

T1 sequence (P05067 672-713 limits assumed): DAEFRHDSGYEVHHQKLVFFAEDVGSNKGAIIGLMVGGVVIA

Row | Structure (SMILES) | inhibition of Aβ42 fibrosis (Aβ42 [1]) | inhibition of Aβ42 oligomerization (Aβ42 [2]) | IL-6 production (IL-6) | expression level of COX-2 (COX-2) | expression level of JNK protein (JNK) | expression level of P38 protein (p38) | NGF content (NGF release in C6 cells)
1 | Oc1ccc(C2=Cc3ccc(O)cc3OC2)cc1 [SPA1413, 3-(4-Hydroxyphenyl)-2H-chromen-7-ol] | showed the effect of inhibiting Aβ42 fibrosis | exhibited inhibitory effects on Aβ42 oligomerization | significantly decreased | significantly decreased | decreased | decreased | significantly increased
2 | CCCC(=O)Oc1ccc(C2=Cc3ccc(OC(=O)CCC)cc3OC2)cc1 [SPA1426, 4-(7-(butyryloxy)-2H-chromen-3-yl)phenyl butyrate] | showed the effect of inhibiting Aβ42 fibrosis | exhibited inhibitory effects on Aβ42 oligomerization | significantly decreased | significantly decreased | decreased | decreased | significantly increased
